In PubChem BioAssay (NCI):
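Five concentrations, 48 hours, 96-well plates. TGI marks complete inhibition of growth.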

How the values were obtained:
Experiment in all cases: NCI-60 cell line screen, 48 h
[1] = system: OVCAR-4 ovarian
[2] = system: SK-MEL-28 melanoma
[3] = system: HCT-116 colon
[4] = system: T-47D breast
[5] = system: SK-OV-3 ovarian
[6] = system: HS 578T breast
[7] = system: IGROV1 ovarian
[8] = system: HOP-62 NSCLC
[9] = system: SW-620 colon
[10] = system: HT29 colon
[11] = system: SK-MEL-2 melanoma
[12] = system: SF-295 CNS
[13] = system: NCI-H23 lung
[14] = system: NCI/ADR-RES ovarian
[15] = system: KM12 colon
[16] = system: COLO 205 colon
[17] = system: SNB-19 CNS
[18] = system: A549 NSCLC
[19] = system: EKVX NSCLC
[20] = system: MCF7 breast
[21] = system: MOLT-4 leukemia
[22] = system: HCC-2998 colon
[23] = system: TK-10 renal
[24] = system: M14 melanoma
[25] = system: SK-MEL-5 melanoma
[26] = system: UACC-257 melanoma
[27] = system: RXF 393 renal
[28] = system: OVCAR-8 ovarian
[29] = system: OVCAR-3 ovarian
[30] = system: SF-268 CNS
[31] = system: ACHN renal
[32] = system: SR leukemia
[33] = system: MALME-3M melanoma
[34] = system: U251 CNS
[35] = system: SN12C renal
[36] = system: K-562 leukemia
[37] = system: HCT-15 colon
[38] = system: BT-549 breast
[39] = system: MDA-MB-435
[40] = system: NCI-H226 lung
[41] = system: MDA-N
[42] = system: SNB-75 CNS
[43] = system: RPMI-8226 leukemia
[44] = system: 786-0 renal
[45] = system: LOX IMVI melanoma
[46] = system: OVCAR-5 ovarian
[47] = system: NCI-H460 lung
[48] = system: UACC-62 melanoma
[49] = system: UO-31 renal
[50] = system: SF-539 CNS
[51] = system: HL-60(TB) leukemia
[52] = system: DU-145 prostate
[53] = system: PC-3 prostate
[54] = system: A498 renal
[55] = system: NCI-H522 lung
[56] = system: HOP-92 NSCLC
[57] = system: MDA-MB-231 breast
[58] = system: CAKI-1 renal

SMILES: O=C(O)C1CCCN1 (stereo not given)
- TGI [1]: > 100 µM
- TGI [2]: > 100 µM
- TGI [3]: > 100 µM
- TGI [4]: > 100 µM
- TGI [5]: > 100 µM
- TGI [6]: > 100 µM
- TGI [7]: > 100 µM
- TGI [8]: > 100 µM
- TGI [9]: > 100 µM
- TGI [10]: > 100 µM
- TGI [11]: > 100 µM
- TGI [12]: > 100 µM
- TGI [13]: > 100 µM
- TGI [14]: > 100 µM
- TGI [15]: > 100 µM
- TGI [16]: > 100 µM
- TGI [17]: > 100 µM
- TGI [18]: > 100 µM
- TGI [19]: > 100 µM
- TGI [20]: > 100 µM
- TGI [21]: > 100 µM
- TGI [22]: > 100 µM
- TGI [23]: > 100 µM
- TGI [24]: > 100 µM
- TGI [25]: > 100 µM
- TGI [26]: > 100 µM
- TGI [27]: > 100 µM
- TGI [28]: > 100 µM
- TGI [29]: > 100 µM
- TGI [30]: > 100 µM
- TGI [31]: > 100 µM
- TGI [32]: > 100 µM
- TGI [33]: > 100 µM
- TGI [34]: > 100 µM
- TGI [35]: > 100 µM
- TGI [36]: > 100 µM
- TGI [37]: > 100 µM
- TGI [38]: > 100 µM
- TGI [39]: > 100 µM
- TGI [40]: > 100 µM
- TGI [41]: > 100 µM
- TGI [42]: > 100 µM
- TGI [43]: > 100 µM
- TGI [44]: > 100 µM
- TGI [45]: > 100 µM
- TGI [46]: > 100 µM
- TGI [47]: > 100 µM
- TGI [48]: > 100 µM
- TGI [49]: > 100 µM
- TGI [50]: > 100 µM
- TGI [51]: > 100 µM
- TGI [52]: > 100 µM
- TGI [53]: > 100 µM
- TGI [54]: > 100 µM
- TGI [55]: > 100 µM
- TGI [56]: > 100 µM
- TGI [57]: > 100 µM

SMILES: Cc1ccc(S(=O)(=O)N(CC(O)COc2ccccc2)c2c(F)c(F)c(F)c(F)c2F)cc1 (stereo not given)
- TGI [1]: 29.2 µM
- TGI [2]: 31.6 µM
- TGI [3]: 44 µM
- TGI [4]: 52.4 µM
- TGI [5]: 43.8 µM
- TGI [6]: 42.6 µM
- TGI [8]: 35.2 µM
- TGI [9]: 36.2 µM
- TGI [10]: 33 µM
- TGI [11]: 30 µM
- TGI [12]: 37.4 µM
- TGI [13]: 29.6 µM
- TGI [14]: 35.1 µM
- TGI [15]: > 100 µM
- TGI [16]: 29.8 µM
- TGI [17]: 43.3 µM
- TGI [18]: 36.8 µM
- TGI [19]: 35.3 µM
- TGI [20]: 23.2 µM
- TGI [21]: 56.4 µM
- TGI [22]: 34.5 µM
- TGI [23]: 71.1 µM
- TGI [24]: 41 µM
- TGI [25]: 25.5 µM
- TGI [28]: 32.8 µM
- TGI [29]: 38.9 µM
- TGI [30]: 30.9 µM
- TGI [31]: 32 µM
- TGI [32]: 47.7 µM
- TGI [33]: 53.1 µM
- TGI [34]: 27.9 µM
- TGI [35]: 37.7 µM
- TGI [37]: 33 µM
- TGI [38]: 28.7 µM
- TGI [39]: 34.5 µM
- TGI [40]: 42.7 µM
- TGI [41]: 32.7 µM
- TGI [42]: 36.5 µM
- TGI [43]: 12.7 µM
- TGI [44]: 38.8 µM
- TGI [45]: 28.6 µM
- TGI [46]: 34.1 µM
- TGI [47]: 30.3 µM
- TGI [58]: 26.7 µM
- TGI [48]: 33.5 µM
- TGI [49]: 25.1 µM
- TGI [50]: 34.4 µM
- TGI [51]: 42.2 µM
- TGI [52]: 72.9 µM
- TGI [53]: 29.2 µM
- TGI [54]: 33.2 µM
- TGI [56]: 21.7 µM
- TGI [57]: 30.7 µM
